One assay concerns the target T1, Ca^2+ channel (Rattus norvegicus, UniProt P22002).
T1 construct: from tissue; host or cells: rat heart membrane preparation
Put plainly: verapamil binding study in rat heart membrane preparation. As to conditions: [^3H]desmethoxyverapamil binding. The procedure: The adverse effect on Ca^2+ channel binding affinity is determined by verapamil binding study in rat heart membrane preparation. More specifically, verapamil binding study is performed as previously described by Reynolds et al, J. Pharmacol. Exp. Ther., 237, 731 (1986). Briefly, incubations are initiated by the addition of tissue to tubes containing 0.25 nM [^3H]desmethoxyverapamil and various concentrations of compounds (total volume 1 ml). Nonspecific binding is defined as radioligand binding remaining in the presence of 3-10 µM methoxyverapamil.

A further assay relates to gerbils. Put plainly: [Sar^9, Met(O2)^11]substance P-induced tapping test. The assay is classed as in vivo. As to conditions: Meriones unguiculatus, at 0.3mg/kg scoring. The procedure:
More specifically, gerbils are lightly anesthetized with ether and the skull surface is exposed. […] Following injection, gerbils are placed in 1 L beaker individually and monitored for repetitive hind paw tapping. Some compounds prepared in the following Examples were tested in accordance with these testing methods.

In assay [1] the target is T2, substance P receptor sites in IM-9 cells (Homo sapiens, UniProt P25103).
T2 construct: endogenous in cells; host or cells: human IM-9 cells
Put plainly: IM-9 binding assay (inhibition of [^3H]SP binding). As to conditions: inhibition of [^3H]SP binding to human IM-9 cells. The procedure:
The activity of the compounds of the present invention, as substance P antagonists, is determined by their ability to inhibit the binding of substance P at its receptor sites in IM-9 cells employing radioactive ligands. The substance P antagonist activity of the herein described compounds is evaluated by using the standard assay procedure described by D. G. Payan et al as reported in J. Immunology, 133, 3260 (1984). This method essentially involves determining the concentration of the individual compound required to reduce by 50% the amount of radiolabeled substance P ligands at their receptor sites in said isolated cow tissues or IM-9 cells, thereby affording characteristic IC50 values for each compound tested. More specifically, inhibition of [^3H]SP binding to human IM-9 cells by compounds are determined in assay buffer (50 mM Tris-HCl (pH 7.4), 1 mM MnCl2, 0.02 % bovine serum albumin, bacitracin (40 µg/ml), leupeptin (4 µg/ml), chymostatin (2 µg/ml) and phosphoramidon (30 µg/ml)). The reaction is initiated by the addition of cells to assay buffer containing 0.56 nM [^3H]SP and various concentrations of compounds (total volume; 0.5 ml) and allowed to incubate for 120 min at 4 °C. […] Nonspecific binding is defined as the radioactivity remaining in the presence of 1 µM SP. The filters are placed into tubes and counted using liquid scintillation counter.

Where a name gives a salt, the structure may show the parent alone. Bounds are passed on as bounds.

One may read the IC50 as the concentration needed to halve the response being measured. A lower IC50 goes with greater potency. Broadly, the inhibition is the drop in the measured response relative to a control, in per cent.

T1 sequence (P22002 whole entry, other chains not shown): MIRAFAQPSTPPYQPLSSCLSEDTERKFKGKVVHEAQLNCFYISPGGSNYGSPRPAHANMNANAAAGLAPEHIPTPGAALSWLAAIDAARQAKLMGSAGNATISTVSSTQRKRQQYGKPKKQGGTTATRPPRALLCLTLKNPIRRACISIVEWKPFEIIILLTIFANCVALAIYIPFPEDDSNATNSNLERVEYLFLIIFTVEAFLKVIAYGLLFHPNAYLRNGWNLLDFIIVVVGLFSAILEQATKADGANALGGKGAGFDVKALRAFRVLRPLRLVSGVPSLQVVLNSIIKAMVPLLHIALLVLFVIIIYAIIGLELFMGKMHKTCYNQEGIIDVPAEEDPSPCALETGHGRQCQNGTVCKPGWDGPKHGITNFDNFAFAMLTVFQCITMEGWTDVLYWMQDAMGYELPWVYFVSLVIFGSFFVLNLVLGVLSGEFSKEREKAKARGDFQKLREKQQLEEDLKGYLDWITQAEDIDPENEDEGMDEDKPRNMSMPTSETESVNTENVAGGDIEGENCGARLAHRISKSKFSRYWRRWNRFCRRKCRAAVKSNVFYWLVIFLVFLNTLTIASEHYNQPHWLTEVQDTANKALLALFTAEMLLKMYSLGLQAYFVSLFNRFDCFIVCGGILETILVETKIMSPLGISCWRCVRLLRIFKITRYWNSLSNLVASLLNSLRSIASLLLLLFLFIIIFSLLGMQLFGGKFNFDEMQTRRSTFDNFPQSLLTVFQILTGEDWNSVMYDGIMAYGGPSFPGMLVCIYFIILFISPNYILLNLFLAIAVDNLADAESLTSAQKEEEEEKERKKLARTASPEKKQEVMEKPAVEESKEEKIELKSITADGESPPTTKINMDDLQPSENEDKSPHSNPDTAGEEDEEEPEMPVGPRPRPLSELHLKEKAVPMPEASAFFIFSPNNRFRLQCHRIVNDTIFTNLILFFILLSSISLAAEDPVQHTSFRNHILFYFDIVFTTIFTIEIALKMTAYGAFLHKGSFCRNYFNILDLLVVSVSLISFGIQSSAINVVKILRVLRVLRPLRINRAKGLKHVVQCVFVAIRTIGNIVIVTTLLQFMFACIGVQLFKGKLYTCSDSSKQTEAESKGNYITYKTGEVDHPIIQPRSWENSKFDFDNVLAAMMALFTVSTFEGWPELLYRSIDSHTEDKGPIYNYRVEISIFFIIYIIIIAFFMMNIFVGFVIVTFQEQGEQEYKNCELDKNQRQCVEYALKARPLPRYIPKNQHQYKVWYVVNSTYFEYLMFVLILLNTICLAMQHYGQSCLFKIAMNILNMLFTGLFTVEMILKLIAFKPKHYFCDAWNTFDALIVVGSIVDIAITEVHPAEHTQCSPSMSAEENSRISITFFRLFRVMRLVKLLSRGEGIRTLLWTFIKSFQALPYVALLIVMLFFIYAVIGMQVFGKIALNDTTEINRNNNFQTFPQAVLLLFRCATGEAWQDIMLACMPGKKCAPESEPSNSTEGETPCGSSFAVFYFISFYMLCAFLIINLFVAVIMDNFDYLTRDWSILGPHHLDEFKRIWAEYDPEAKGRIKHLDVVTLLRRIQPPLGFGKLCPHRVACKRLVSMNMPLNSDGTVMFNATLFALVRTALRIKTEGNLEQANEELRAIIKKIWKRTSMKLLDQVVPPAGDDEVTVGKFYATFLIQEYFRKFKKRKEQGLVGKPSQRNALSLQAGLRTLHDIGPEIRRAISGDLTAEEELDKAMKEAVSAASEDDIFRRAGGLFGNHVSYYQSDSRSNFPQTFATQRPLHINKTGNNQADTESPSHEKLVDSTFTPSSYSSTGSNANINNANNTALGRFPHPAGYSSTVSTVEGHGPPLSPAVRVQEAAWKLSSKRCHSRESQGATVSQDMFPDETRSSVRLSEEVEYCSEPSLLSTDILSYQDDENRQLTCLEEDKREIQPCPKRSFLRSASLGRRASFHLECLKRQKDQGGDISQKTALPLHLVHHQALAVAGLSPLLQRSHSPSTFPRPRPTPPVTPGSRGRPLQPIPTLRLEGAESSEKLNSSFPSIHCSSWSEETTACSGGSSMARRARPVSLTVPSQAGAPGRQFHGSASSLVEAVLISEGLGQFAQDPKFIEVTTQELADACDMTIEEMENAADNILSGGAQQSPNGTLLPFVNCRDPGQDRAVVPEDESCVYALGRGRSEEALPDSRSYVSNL
T1 sequence (P54290 25-944 partner limits assumed, other chains not shown): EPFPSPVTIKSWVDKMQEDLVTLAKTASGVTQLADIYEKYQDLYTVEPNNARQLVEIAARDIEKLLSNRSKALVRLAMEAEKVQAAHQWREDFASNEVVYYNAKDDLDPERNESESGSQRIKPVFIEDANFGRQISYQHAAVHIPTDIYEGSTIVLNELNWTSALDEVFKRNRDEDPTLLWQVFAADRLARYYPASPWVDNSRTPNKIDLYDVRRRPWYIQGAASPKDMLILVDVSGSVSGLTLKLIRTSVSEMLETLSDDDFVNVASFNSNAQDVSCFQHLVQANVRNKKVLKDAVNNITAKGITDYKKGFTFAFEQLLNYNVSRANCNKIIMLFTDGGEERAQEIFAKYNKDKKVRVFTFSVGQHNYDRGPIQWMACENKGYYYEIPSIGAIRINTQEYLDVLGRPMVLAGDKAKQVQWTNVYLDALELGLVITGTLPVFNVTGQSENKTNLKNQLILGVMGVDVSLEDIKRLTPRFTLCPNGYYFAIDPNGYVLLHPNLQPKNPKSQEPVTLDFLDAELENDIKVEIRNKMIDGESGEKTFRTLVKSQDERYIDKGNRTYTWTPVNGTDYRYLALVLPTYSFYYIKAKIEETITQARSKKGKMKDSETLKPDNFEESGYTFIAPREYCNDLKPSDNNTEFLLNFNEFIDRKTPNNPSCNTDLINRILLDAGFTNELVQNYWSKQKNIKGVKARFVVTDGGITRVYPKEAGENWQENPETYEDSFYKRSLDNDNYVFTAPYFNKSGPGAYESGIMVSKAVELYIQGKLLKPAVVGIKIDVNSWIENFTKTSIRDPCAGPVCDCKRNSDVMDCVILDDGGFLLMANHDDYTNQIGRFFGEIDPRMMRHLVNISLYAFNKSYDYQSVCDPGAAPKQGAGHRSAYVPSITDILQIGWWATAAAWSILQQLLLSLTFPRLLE
T1 sequence (P54290 945-1091 partner limits assumed, other chains not shown): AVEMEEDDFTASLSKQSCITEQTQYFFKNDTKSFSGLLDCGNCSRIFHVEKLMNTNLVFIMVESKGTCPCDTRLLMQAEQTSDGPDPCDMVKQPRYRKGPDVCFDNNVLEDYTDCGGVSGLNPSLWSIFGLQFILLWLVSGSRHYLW
T2 sequence (P25103 whole entry): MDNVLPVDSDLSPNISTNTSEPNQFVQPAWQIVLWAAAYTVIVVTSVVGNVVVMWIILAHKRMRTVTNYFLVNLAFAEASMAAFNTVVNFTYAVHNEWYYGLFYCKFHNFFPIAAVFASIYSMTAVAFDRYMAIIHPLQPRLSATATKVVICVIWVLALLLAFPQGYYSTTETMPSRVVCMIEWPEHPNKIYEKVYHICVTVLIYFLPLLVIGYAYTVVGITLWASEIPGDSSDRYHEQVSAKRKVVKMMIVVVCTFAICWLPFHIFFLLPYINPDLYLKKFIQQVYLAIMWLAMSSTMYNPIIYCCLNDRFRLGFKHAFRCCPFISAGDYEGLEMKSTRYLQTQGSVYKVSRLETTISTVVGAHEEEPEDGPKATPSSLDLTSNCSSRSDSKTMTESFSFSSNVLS

As to `COc1cc2c(cc1CN[C@H]1CCCN[C@H]1c1ccccc1)N(C)C(=O)CC2` [Compound 21, (2S,3S)-3-(6-Methoxy-1-methyl-2-oxo-1,2,3,4-tetrahydroquinolin-7-yl)methylamino-2-phenylpiperidine dihydrochloride], the IC50 on Ca^2+ channel is above 3 µM; in assay [1] it was below 0.0001 µM. At 0.3 mg/kg the inhibition in the assay with gerbils was 52%.

These data come from EP1175417B1, “SUBSTITUTED BENZOLACTAM COMPOUNDS” (Pfizer Products Inc., priority 1999, dated 2000).
